Measurements: paper PMC9044501 (Journal of molecular biology, 2021)

Assays:
[1] = molecular target: T1, myosin in bovine cardiac synthetic thick filaments (BcSTF) (Bos taurus, UniProt Q9BE39); assay: Single mant-ATP turnover kinetics in BcSTF; format: biochemical
[2] = molecular target: T2, bovine cardiac myofibrils (BcMF) (Bos taurus, UniProt Q9BE39); assay: Single mant-ATP turnover kinetics in BcMF; format: biochemical
[3] = molecular target: T1, myosin in bovine cardiac synthetic thick filaments (BcSTF); assay: Basal myosin ATPase activity; format: biochemical; settings: read-out: Basal ATPase (BcSTF) IC50, 1 μM myosin, 23°C
[4] = molecular target: T2, bovine cardiac myofibrils (BcMF); assay: Myofibrillar ATPase activity at pCa 6; format: biochemical; settings: read-out: Myofibrillar ATPase (BcMF) IC50, pCa 6, 23°C
[5] = molecular target: T3, human β-cardiac 25-hep HMM (Homo sapiens, UniProt P12883); assay: SEC-MALS-DLS light scattering of 25-hep HMM; settings: at 20 μM mavacamten and 50 μM para-nitroblebbistatin
[6] = molecular target: T3, human β-cardiac 25-hep HMM; assay: Small-angle X-ray scattering; settings: at 20 μM mavacamten and 50 μM para-nitroblebbistatin
myosin = assay: Blebbistatin binding to myosin in the presence of mavacamten; settings: Fig. S2

T1 sequence (Q9BE39 whole entry): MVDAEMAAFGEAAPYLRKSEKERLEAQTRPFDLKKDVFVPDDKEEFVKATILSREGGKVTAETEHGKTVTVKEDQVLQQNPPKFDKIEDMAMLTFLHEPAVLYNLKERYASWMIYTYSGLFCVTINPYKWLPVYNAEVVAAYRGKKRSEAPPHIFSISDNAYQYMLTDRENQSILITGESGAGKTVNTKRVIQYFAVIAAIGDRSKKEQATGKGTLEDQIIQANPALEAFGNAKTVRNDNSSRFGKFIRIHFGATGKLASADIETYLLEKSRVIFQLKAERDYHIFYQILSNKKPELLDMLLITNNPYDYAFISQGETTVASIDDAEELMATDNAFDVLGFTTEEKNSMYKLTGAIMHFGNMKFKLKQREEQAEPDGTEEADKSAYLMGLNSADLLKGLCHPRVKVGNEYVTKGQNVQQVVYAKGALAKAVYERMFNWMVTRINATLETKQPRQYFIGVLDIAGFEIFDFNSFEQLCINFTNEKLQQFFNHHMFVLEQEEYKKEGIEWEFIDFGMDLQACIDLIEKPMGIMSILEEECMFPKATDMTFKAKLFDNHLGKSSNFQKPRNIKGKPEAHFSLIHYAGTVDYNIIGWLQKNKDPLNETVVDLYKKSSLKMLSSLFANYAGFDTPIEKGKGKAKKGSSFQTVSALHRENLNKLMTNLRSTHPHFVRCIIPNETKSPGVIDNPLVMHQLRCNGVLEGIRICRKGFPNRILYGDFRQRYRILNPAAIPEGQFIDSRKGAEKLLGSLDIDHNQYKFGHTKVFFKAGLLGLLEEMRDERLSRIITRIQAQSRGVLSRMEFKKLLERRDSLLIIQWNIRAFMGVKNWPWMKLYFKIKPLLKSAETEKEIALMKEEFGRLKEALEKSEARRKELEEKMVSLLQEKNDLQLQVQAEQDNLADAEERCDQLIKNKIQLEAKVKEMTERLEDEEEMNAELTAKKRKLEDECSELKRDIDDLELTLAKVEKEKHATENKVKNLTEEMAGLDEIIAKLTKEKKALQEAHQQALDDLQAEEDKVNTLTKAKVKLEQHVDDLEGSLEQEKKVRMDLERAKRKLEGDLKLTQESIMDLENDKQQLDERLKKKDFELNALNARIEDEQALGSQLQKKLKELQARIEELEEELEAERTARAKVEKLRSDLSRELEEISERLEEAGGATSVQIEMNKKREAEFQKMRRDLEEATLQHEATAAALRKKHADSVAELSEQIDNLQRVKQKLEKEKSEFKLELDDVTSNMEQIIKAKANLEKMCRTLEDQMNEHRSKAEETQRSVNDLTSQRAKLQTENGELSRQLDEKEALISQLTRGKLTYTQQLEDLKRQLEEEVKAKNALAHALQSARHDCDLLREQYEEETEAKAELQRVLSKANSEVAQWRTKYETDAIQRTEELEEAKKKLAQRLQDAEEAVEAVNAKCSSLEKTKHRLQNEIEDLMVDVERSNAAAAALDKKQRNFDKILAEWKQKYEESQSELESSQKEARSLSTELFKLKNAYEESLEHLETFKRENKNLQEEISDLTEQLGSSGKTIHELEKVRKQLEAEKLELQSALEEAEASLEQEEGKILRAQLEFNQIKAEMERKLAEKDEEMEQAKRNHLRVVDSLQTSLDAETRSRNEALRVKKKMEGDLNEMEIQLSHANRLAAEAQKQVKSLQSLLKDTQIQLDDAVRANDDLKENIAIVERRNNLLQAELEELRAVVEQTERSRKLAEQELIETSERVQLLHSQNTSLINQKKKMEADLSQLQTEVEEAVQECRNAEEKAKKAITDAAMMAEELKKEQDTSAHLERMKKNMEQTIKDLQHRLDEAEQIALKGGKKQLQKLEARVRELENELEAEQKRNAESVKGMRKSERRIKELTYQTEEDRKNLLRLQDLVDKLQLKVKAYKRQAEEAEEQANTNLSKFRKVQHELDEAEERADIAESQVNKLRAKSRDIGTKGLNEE
T1 sequence (P85100 whole entry partner): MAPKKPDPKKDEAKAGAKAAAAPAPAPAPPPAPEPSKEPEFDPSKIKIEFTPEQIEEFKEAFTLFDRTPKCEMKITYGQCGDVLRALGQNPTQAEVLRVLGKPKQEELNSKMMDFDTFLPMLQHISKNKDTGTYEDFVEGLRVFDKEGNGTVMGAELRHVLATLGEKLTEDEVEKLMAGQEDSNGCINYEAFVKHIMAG
T1 sequence (Q3SZE5 whole entry partner): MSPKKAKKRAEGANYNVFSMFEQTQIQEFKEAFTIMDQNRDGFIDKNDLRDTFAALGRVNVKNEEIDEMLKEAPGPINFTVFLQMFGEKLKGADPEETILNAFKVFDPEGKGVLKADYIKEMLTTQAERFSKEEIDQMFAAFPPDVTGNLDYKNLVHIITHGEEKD
T2 sequence (Q9BE39 whole entry): as the sequence (Q9BE39 whole entry) above
T2 sequence (P85100 whole entry partner): as the sequence (P85100 whole entry partner) above
T2 sequence (Q3SZE5 whole entry partner): as the sequence (Q3SZE5 whole entry partner) above

SMILES: CC(C)n1c(=O)cc(N[C@@H](C)c2ccccc2)[nH]c1=O [Mavacamten, mavacamten]
- Hill coefficient ([1]; DRX to SRX shift, up to 3.125 μM): 2–4
- magnitude of myosin SRX population ([1]; saturating concentrations): ~ 100%
- magnitude of myosin SRX population ([2]; saturating concentrations): ~ 65%

SMILES: Cc1ccc2c(c1)C(=O)[C@]1(O)CCN(c3ccc([N+](=O)[O-])cc3)C1=N2 [Para-nitroblebbistatin, para-nitroblebbistatin]
- IC50 [3]: 2.37 ± 0.12 µM
- IC50 [4]: 4.05 ± 0.34 µM
- lifetime of mant-nucleotides for compound-bound myosin ([1]; experiment duration 2400 s): > 2400 s
- IC50 ([1]; read-out: DRX ATPase Rate, kfast (BcSTF), half-maximal decrease, 0μM blebbistatin): > 12.5 µM
- EC50 ([1]; read-out: SRX Amplitude, Aslow (BcSTF), half-maximal increase, 0μM blebbistatin): > 12.5 µM
- IC50 ([2]; read-out: DRX ATPase Rate, kfast (BcMF), half-maximal decrease): > 12.5 µM
- EC50 ([2]; read-out: SRX Amplitude, Aslow (BcMF), half-maximal increase): > 12.5 µM
- Hydrodynamic radius of 25-hep HMM (DLS) [5]: 84.1±2.2 Å
- Molecular Mass of 25-hep HMM (MALS) [5]: 363±14 kDa
- I(0), Guinier Analysis [6]: 0.04 ± 0.01 cm⁻¹
- I(0), P(r) Analysis [6]: 0.04 ± 0 cm⁻¹
- Porod volume, P(r) Analysis [6]: 1.42e6 Å^−3
- Rg, Guinier Analysis [6]: 102.5±1.5 Å
- Rg, P(r) Analysis [6]: 124±10 Å
- reduction of Rg (Guinier) compared to untreated 25-hep HMM [6]: 14%
- reduction of Rg (P(r) analysis) compared to untreated 25-hep HMM [6]: 11%

SMILES: Cc1ccc2c(c1)C(=O)C1(O)CCN(c3ccccc3)C1=N2 (centres unmarked) [blebbistatin]
- binding of blebbistatin in the presence of mavacamten (myosin): not compromised
